Experimental data published in patent publication US6590140B1, “Metal-regulated transporters and uses therefor” (Trustees of Dartmouth College, priority 1996, dated 2003).

What was measured:
[1] = test system: ZRT1 promoter; experiment: ZRT1-lacZ fusion β-galactosidase assay; type: cell-based, Saccharomyces cerevisiae; conditions: LZM-EDTA, 16 hours
Experimental: (§1) Zinc uptake assays were performed as described previously for iron uptake (Eide et al. (1992) J. Biol. Chem. 267:20774-20781) except that ^65ZnCl2 (Amersham) and LZM-EDTA were substituted for ^59FeCI3 and LIM-EDTA, respectively. Cells were incubated for 5 minutes in LZM-EDTA plus the indicated concentration of ^65Zn, collected on glass fiber filters (Schleicher and Schuell), washed with 10 ml ice-cold SSW (1 mM EDTA, 20 mM trisodium citrate, 1 mM KH2PO4, 1 mM CaCl2, 5 mM MgSO4, 1 mM NaCl pH 4.2), and cell-associated radioactivity was measured by liquid scintillation counting. Cells were starved for glucose by incubating them in LZM-EDTA prepared without glucose for one hour at 30° C. prior to assay. Michaelis-Menten kinetic values were determined using […] software (Intellikinetics, Princeton, N.J.). Stock solutions of the chloride salts of Co, Cu, Mg, Mn, and Ni were prepared in distilled water at a concentration of 100 mM. The nonradioactive ZnCl2 stock was prepared at 100 mM in 0.02 N HCl and the FeCl3 stock was prepared at 50 mM in 0.1 N HCl. The statistical significance of the differences of values relative to controls was determined with one-way analysis of variance (ANOVA) followed by a Dunnett multiple comparison test. β-galactosidase activity was assayed in cells harvested at an OD600 of 0.5-2.0 as described by Guarente (Guarente, L. (1983) Methods Enzymol. 101:181-191) and activity is expressed as the change in absorbance at 420 nm×1000 divided by (min×ml of culture used×OD600 of the culture). Cell-associated zinc was measured in parallel cultures supplemented with tracer amounts of ^65Zn (10 μM) and nonradioactive zinc to the indicated final concentration. Aliquots (0.5 ml) were filtered, washed with 10 ml ice-cold SSW, and radioactivity measured by liquid scintillation.
The effects of the zrt2 mutation on the regulation of the ZRT1 gene was also examined. […] Furthermore, cell-associated zinc levels are much lower in the zrt1 mutant grown in zinc-limiting conditions. At higher concentrations of extracellular zinc, however, these levels increased to the wild type levels. It was proposed that this accumulation was the result of zinc uptake by the low affinity system. To test this hypothesis and determine the effect of the zrt2 mutation on the pool of intracellular zinc that regulates ZRT1 gene expression, β-galactosidase activity from the ZRT1-lacZ fusion in wild type, zrt1, zrt2, and zrt1zrt2 mutant strains grown in media supplemented with a broad range of zinc concentrations was measured. […] These values are also plotted against the calculated free zinc concentration ([Zn]F). […]

[2] = biological target: T1, ZIP2 (Arabidopsis thaliana, UniProt Q9LTH9); experiment: Zn uptake by ZHY3 containing ZIP2; type: cell-based; conditions: ZHY3 cells containing ZIP2, 5 minute time course using 10 mM Zn
T1 construct: expressed in transfected cells; host or cells: S. cerevisiae ZHY3 (zrt1::LEU2 zrt2::HIS3) with an Arabidopsis cDNA clone in pFL61
T1 sequence (Q9LTH9 30-353): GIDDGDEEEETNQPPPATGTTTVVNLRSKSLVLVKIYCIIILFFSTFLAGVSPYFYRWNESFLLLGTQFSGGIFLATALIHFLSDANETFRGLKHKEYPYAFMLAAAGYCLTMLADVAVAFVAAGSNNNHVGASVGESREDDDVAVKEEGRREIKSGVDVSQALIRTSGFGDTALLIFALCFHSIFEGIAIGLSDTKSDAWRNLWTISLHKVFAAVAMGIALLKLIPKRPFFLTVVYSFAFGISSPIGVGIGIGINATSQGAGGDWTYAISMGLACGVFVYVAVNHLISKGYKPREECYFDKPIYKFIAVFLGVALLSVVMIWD
Experimental: as §1, with “Cells were starved for glucose by incubating them in LZM-EDTA prepared without glucose for one hour at 30° C. prior to assay.” left out, “Stock solutions of the chloride salts of Co, Cu, Mg, Mn, and Ni were prepared in distilled water at a concentration of 100 mM. The nonradioactive ZnCl2 stock was prepared at 100 mM in 0.02 N HCl and the FeCl3 stock was prepared at 50 mM in 0.1 N HCl.” left out, “Aliquots (0.5 ml) were filtered, washed with 10 ml ice-cold SSW, and radioactivity measured by liquid scintillation.” left out

[3] = test system: zrt1zrt2 strain; experiment: Cell-associated zinc, zrt1zrt2 strain; type: cell-based, Saccharomyces cerevisiae
Experimental: as §1, with “Cells were starved for glucose by incubating them in LZM-EDTA prepared without glucose for one hour at 30° C. prior to assay.” left out, “Stock solutions of the chloride salts of Co, Cu, Mg, Mn, and Ni were prepared in distilled water at a concentration of 100 mM. The nonradioactive ZnCl2 stock was prepared at 100 mM in 0.02 N HCl and the FeCl3 stock was prepared at 50 mM in 0.1 N HCl.” left out, “Aliquots (0.5 ml) were filtered, washed with 10 ml ice-cold SSW, and radioactivity measured by liquid scintillation.” left out

[Zn+2] [zinc]
calculated free zinc [Zn]F at which β-galactosidase activity decreased to its minimal level ([1]; zrt1 mutant): ~0.12 µM
total zinc at which β-galactosidase activity decreased to its minimal level ([1]; zrt1 mutant): 10 µM
calculated free zinc [Zn]F at which ZRT1-lacZ expression was down-regulated ([1]; zrt1zrt2 mutant): ~2.4 µM
total zinc concentration at which ZRT1-lacZ expression was down-regulated ([1]; zrt1zrt2 mutant): ≥ 200 µM
Zn uptake [2]: no Zn uptake
cell-associated zinc ([3]; 10 μM total zinc): 5±0.6 pmol/10^6 cells
cell-associated zinc ([3]; 1000 μM total zinc): 86±21 pmol/10^6 cells
